# Test system: MSSA
# Experiment: Specificity of the medium on the MSSA strains
# Assay type: cell-based, Staphylococcus aureus
# Settings: 8 MSSA strains; for number of MSSA strains that grew at 24 h after stress: plates 3 days at 37° C. before inoculation
# Excerpt: The basal medium comprises peptone, salts, antifungal and antibacterial agents to inhibit the growth of Gram negative bacteria and fungi. The basal medium is chosen to promote the growth of staphylococci, in particular Staphylococcus aureus.
# Several strains of MRSA (methicillin resistant S. aureus) and MSSA (methicillin susceptible S. aureus) have been chosen from a collection of strains. Strains were cultivated first on a non selective medium. The colonies are used to perform a “heavy inoculum or HI”, corresponding to approximately 10^8 bacteria/mL inoculated as a spot on a small portion of the plate, and a “light inoculum or LI”, corresponding to approximately 10^5 bacteria/mL streaked on a large portion of the plate. Plates were incubated for 48 h at 35-37° C. The reading was performed at 24 and 48 h of incubation time.
# Abbreviations and legends to the Tables: • cefotetan (CTT) • ceftriaxone (CRO) • cefuroxime (CXM) • cefsulodin (CFS), • Cefepime (FEP) • Cefoperazone (CFP) • cefpodoxime (CPD) • moxalactam (MOX) • cefoxitin (FOX) • cefmetazole (CMT) • ceftiofur (XLN) • G: growth (if nothing else is written, “G” means growth with HI and LI at 24 h); Imp G: heavy growth; AG: absence of growth; cfu: colony forming unit; μcfu: pinpoint colonies; SENS: Sensitivity (%); SPE: Specificity (%); MRSA: methicillin-resistant Staphylococcus aureus; MSSA: methicillin-sensitive Staphylococcus aureus; MRSE: methicillin-resistant Staphylococcus epidermidis; MSSE: methicillin-sensitive Staphylococcus epidermidis; Results
# When two cephalosporins are added, the stability of the formula is increased. Due to the fact that the molecules are unstable, growth of MSSA often appears after stress. The inventors have mimicked the stress due to transportation of the Petri dishes to the customer's lab, in summer, by placing the plates for 3 days at 37° C. before inoculation and incubation 24 or 48 h. The basal medium composition was the same as described in Example 1. Abbreviations have the same meaning.
SMILES,number of MSSA strains that grew at 24 h after stress,number of MSSA strains able to grow at 24 h (plates not submitted to stress)
"CO/N=C(\C(=O)N[C@@H]1C(=O)N2C(C(=O)O)=C(CSc3nc(=O)c(=O)[nH]n3C)CS[C@H]12)c1csc(N)n1 [CRO, ceftriaxone]",four,one
"CO[C@@]1(NC(=O)Cc2cccs2)C(=O)N2C(C(=O)O)=C(COC(N)=O)CS[C@@H]21 [FOX, cefoxitin]",4,
"CO[C@@]1(NC(=O)C(C(=O)O)c2ccc(O)cc2)C(=O)N2C(C(=O)O)=C(CSc3nnnn3C)CO[C@@H]21 (stereo partly shown) [MOX, moxalactam]",4,

# From patent US9434978B2, “Culture medium for screening or enrichment of methicillin-resistant S. aureus” (BIO-RAD INNOVATIONS, priority 2009, dated 2016)
